From patent publication US7189679B2, “Herbicidal 3-amino-2-thiomethylbenzoylpyrazoles” (Bayer CropScience GmbH, priority 2004, dated 2007)

Assays:
Assay type in all cases: in vivo
Sinapis arvensis = experiment: Post-emergence herbicidal action against weed plants; details: three-leaf stage, 320 g/ha, scored after 3 to 4 weeks
Procedure: (§1) Seeds of mono- and dicotyledonous weed plants are placed in sandy loam in cardboard pots, covered with soil and grown in the greenhouse under good growth conditions. Two to three weeks after sowing, the test plants are treated at the three-leaf stage. The compounds according to the invention, formulated as wettable powders or as emulsifiable concentrates, are sprayed at various dosages onto the surface of the green plant parts at an application rate of 600 to 800 l of water per ha (converted). After the test plants have been left to stand in the greenhouse for 3 to 4 weeks under optimal growth conditions, the effect of the compounds is scored.

Amaranthus retroflexus = experiment: as above; details: three-leaf stage, 320 g/ha, scored after 3 to 4 weeks
Procedure: as §1

Chenopodium album = experiment: as above; details: three-leaf stage, 320 g/ha, scored after 3 to 4 weeks
Procedure: as §1

Stellaria media = experiment: as above; details: three-leaf stage, 320 g/ha, scored after 3 to 4 weeks
Procedure: as §1

Fallopia convolvulus = experiment: as above; details: three-leaf stage, 320 g/ha, scored after 3 to 4 weeks
Procedure: as §1

Setaria viridis = experiment: as above; details: three-leaf stage, 320 g/ha, scored after 3 to 4 weeks
Procedure: as §1

Echinochloa crus-galli [1] = experiment: as above; details: three-leaf stage, 320 g/ha, scored after 3 to 4 weeks
Procedure: as §1

Sagittaria pygmaea = experiment: Crop plant tolerance test, action against weed plants; details: 100 g/ha, visual scoring four to five weeks after application
Procedure: as §1, with “After the test plants have been left to stand in the greenhouse for 3 to 4 weeks under optimal growth conditions, the effect of the compounds is scored.” left out
(§2) In further greenhouse experiments, seeds of barley and of monocotyledonous and dicotyledonous weed plants are placed in sandy loam, covered with soil and placed in the greenhouse until the plants have developed two to three true leaves. Then they are treated with the compounds of the formula (I) according to the invention, as described above in section 2.

Cyperus serotinus = experiment: as above; details: 100 g/ha, visual scoring four to five weeks after application
Procedure: as §1, with “After the test plants have been left to stand in the greenhouse for 3 to 4 weeks under optimal growth conditions, the effect of the compounds is scored.” left out
as §2

Scirpus juncoides = experiment: as above; details: 100 g/ha, visual scoring four to five weeks after application
Procedure: as §1, with “After the test plants have been left to stand in the greenhouse for 3 to 4 weeks under optimal growth conditions, the effect of the compounds is scored.” left out
as §2

rice = experiment: Crop plant tolerance test, damage to crop plant; details: 100 g/ha, visual scoring four to five weeks after application
Echinochloa crus-galli [2] = experiment: Crop plant tolerance test, action against weed plants; details: 100 g/ha, visual scoring four to five weeks after application
Procedure: as §1, §2

SMILES	activity against Sinapis arvensis (Sinapis arvensis)	activity against Amaranthus retroflexus (Amaranthus retroflexus)	activity against Chenopodium album (Chenopodium album)	activity against Stellaria media (Stellaria media)	activity against Fallopia convolvulus (Fallopia convolvulus)	activity against Setaria viridis (Setaria viridis)	activity against Echinochloa crus-galli (Echinochloa crus-galli [1])	action against Sagittaria pygmaea (Sagittaria pygmaea)	action against Cyperus serotinus (Cyperus serotinus)	action against Scirpus juncoides (Scirpus juncoides)	damage to the crop plant rice (rice)	action against Echinochloa crus-galli (Echinochloa crus-galli [2])
CCCS(=O)(=O)Oc1c(C(=O)c2ccc(Br)c(N)c2CS(C)(=O)=O)c(C)nn1C [compound 4]	at least 90%	at least 90%	at least 90%	at least 90%	at least 90%	at least 90%	at least 90%					
CCn1ncc(C(=O)c2ccc(Br)c(N)c2CS(C)(=O)=O)c1O [compound 6]								at least 95%	at least 95%	at least 95%	no damage	at least 95%
